What is called EC50 is the concentration at which the effect is half-maximal.

Results on seven molecules are retold here after patent US10406207B2, “Peptide conjugates of GLP-1 receptor agonists and gastrin and their use” (priority 2010, dated 2019).

Where two headings read alike, the source gives them in different places. Numbered stars: 1 amine (or outer) side, 2 acyl side, 3 side chain; on linkers, the order of the positions; unused ones are H or OH. Square brackets hold non-standard residues; d marks the D form. Side chains are listed from the residue outwards. Peptide text beside a SMILES is read from it. * marks the point of attachment. γGlu = O=C(O)[C@H](CCC(=O)[*:2])N[*:1]; Palmitoyl = CCCCCCCCCCCCCCCC(=O)*; Orn = NCCC[C@H](N)C(=O)O; AEEA = NCCOCCOCC(=O)O

The target of experiment [1] is T1, human GLP-1 R (Homo sapiens, UniProt P43220).
T1 construct: expressed in transfected cells
Description: Human GLP-1 receptor efficacy assay (cAMP induction, FlashPlate). The class given is cell-based. The settings on record: read-out: hGLP-1 R EC50. As for the experimental part: On the day of analysis, growth medium was removed and the cells were washed once with 200 μl Tyrode buffer [Tyrode's Salts (9.6 g/l), 10 mM HEPES, pH 7.4]. […] The reaction was stopped by addition of 25 μl 0.5 M HCl and incubated on ice for 60 min.

The target of experiment [2] is T2, human CCK-B R (Homo sapiens, UniProt P32239).
T2 construct: expressed in transfected cells
T2 sequence (P32239 1-447): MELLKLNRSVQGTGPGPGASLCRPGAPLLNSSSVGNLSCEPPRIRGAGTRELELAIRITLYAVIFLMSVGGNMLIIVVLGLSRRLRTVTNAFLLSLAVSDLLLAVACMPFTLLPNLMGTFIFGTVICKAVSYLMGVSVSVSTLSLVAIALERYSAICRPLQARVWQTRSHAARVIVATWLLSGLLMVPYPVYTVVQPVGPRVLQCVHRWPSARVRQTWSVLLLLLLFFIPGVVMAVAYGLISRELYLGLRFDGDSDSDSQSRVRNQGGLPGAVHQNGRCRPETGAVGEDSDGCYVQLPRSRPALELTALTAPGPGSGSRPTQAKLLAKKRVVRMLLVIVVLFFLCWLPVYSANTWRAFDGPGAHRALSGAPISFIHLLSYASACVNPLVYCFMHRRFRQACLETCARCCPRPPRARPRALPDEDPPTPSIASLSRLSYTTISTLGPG
Description: Human CCK-B receptor efficacy assay (AlphaScreen SureFire p-ERK). Format: cell-based. The settings on record: read-out: hCCK-B R EC50. Background: Alpha assays give light when donor and acceptor beads are brought close together.

T1 sequence (P43220 24-463): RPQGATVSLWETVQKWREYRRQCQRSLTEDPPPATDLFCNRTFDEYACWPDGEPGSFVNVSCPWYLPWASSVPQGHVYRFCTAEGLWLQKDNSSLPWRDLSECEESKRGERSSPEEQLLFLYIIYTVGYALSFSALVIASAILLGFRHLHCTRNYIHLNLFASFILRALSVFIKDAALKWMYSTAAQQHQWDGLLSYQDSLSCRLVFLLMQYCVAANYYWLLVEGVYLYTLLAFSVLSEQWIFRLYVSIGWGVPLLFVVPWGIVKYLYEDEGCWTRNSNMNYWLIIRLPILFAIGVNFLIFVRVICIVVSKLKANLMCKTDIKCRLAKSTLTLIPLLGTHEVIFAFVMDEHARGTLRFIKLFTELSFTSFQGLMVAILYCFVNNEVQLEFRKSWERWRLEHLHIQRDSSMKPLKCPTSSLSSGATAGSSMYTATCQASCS

As to `CC[C@H](C)[C@H](NC(=O)[C@H](Cc1ccccc1)NC(=O)[C@H](CC(C)C)NC(=O)[C@H](CCCNC(=N)N)NC(=O)[C@@H](NC(=O)[C@H](C)NC(=O)[C@H](CCC(=O)O)NC(=O)[C@H](CCC(=O)O)NC(=O)[C@H](CCC(=O)O)NC(=O)[C@H](CC(C)C)NC(=O)[C@H](Cc1ccc(O)cc1)NC(=O)[C@H](CCCCN)NC(=O)[C@H](CO)NC(=O)[C@H](CC(C)C)NC(=O)[C@H](CC(=O)O)NC(=O)[C@H](CO)NC(=O)[C@@H](NC(=O)[C@H](Cc1ccccc1)NC(=O)[C@@H](NC(=O)CNC(=O)[C@H](CCC(=O)O)NC(=O)CNC(=O)[C@@H](N)Cc1c[nH]cn1)[C@@H](C)O)[C@@H](C)O)C(C)C)C(=O)N[C@@H](CCC(=O)O)C(=O)N[C@@H](Cc1ccccc1)C(=O)N[C@@H](CC(C)C)C(=O)N[C@@H](CCCNC(=N)N)C(=O)NCCOCCOCC(=O)N[C@@H](Cc1ccc(O)cc1)C(=O)NCC(=O)N[C@@H](Cc1c[nH]c2ccccc12)C(=O)N[C@@H](CC(C)C)C(=O)N[C@@H](CC(=O)O)C(=O)N[C@@H](Cc1ccccc1)C(N)=O` [Compound 91, [Arg27,Leu14,Phe25,Tyr13]Exendin-4(1-27)-Peg3-[Leu4]Gastrin6] (H-HGEGTFTSDLSKYLEEEAVRLFIEFLR[AEEA]YGWLDF-NH2), the EC50 stood at 0.068 nM in experiment [1] (Table 2) and 18 nM in experiment [2] (Table 2).

For the molecule `CC[C@H](C)[C@H](NC(=O)[C@H](Cc1ccccc1)NC(=O)[C@H](CCC(=O)O)NC(=O)[C@H](CCCCN)NC(=O)[C@H](C)NC(=O)[C@H](C)NC(=O)[C@H](CCC(N)=O)NC(=O)CNC(=O)[C@H](CCC(=O)O)NC(=O)[C@H](CC(C)C)NC(=O)[C@H](Cc1ccc(O)cc1)NC(=O)[C@H](CO)NC(=O)[C@H](CO)NC(=O)[C@@H](NC(=O)[C@H](CC(=O)O)NC(=O)[C@H](CO)NC(=O)[C@@H](NC(=O)[C@H](Cc1ccccc1)NC(=O)[C@@H](NC(=O)CNC(=O)[C@H](CCC(=O)O)NC(=O)C(C)(C)NC(=O)[C@@H](N)Cc1c[nH]cn1)[C@@H](C)O)[C@@H](C)O)C(C)C)C(=O)N[C@@H](C)C(=O)N[C@@H](Cc1c[nH]c2ccccc12)C(=O)N[C@@H](CC(C)C)C(=O)N[C@H](C(=O)N[C@@H](CCCNC(=N)N)C(=O)NCC(=O)N[C@@H](CCCNC(=N)N)C(=O)NCC(=O)NCCOCCOCC(=O)NCCOCCOCC(=O)N[C@@H](Cc1ccc(O)cc1)C(=O)NCC(=O)N[C@@H](Cc1c[nH]c2ccccc12)C(=O)N[C@@H](CC(C)C)C(=O)N[C@@H](CC(=O)O)C(=O)N[C@@H](Cc1ccccc1)C(N)=O)C(C)C` [Compound 112, [Aib8,Arg34]GLP-1(7-37)-Peg3-Peg3-[Leu4]Gastrin6], the EC50 in experiment [1] (Table 3) is 0.043 nM; in experiment [2] (Table 3) it was 42 nM.

As for `CC[C@H](C)[C@H](NC(=O)[C@H](Cc1ccccc1)NC(=O)[C@H](CC(C)C)NC(=O)[C@H](CCCNC(=N)N)NC(=O)[C@@H](NC(=O)[C@H](C)NC(=O)[C@H](CCC(=O)O)NC(=O)[C@H](CCCCN)NC(=O)[C@H](CCC(=O)O)NC(=O)[C@H](CCSC)NC(=O)[C@H](CCC(N)=O)NC(=O)[C@H](CCCCN)NC(=O)[C@H](CO)NC(=O)[C@H](CC(C)C)NC(=O)[C@H](CC(=O)O)NC(=O)[C@H](CO)NC(=O)[C@@H](NC(=O)[C@H](Cc1ccccc1)NC(=O)[C@@H](NC(=O)CNC(=O)[C@H](CCC(=O)O)NC(=O)CNC(=O)[C@@H](N)Cc1c[nH]cn1)[C@@H](C)O)[C@@H](C)O)C(C)C)C(=O)N[C@@H](CCC(=O)O)C(=O)N[C@@H](Cc1c[nH]c2ccccc12)C(=O)N[C@@H](CC(C)C)C(=O)N[C@@H](CCCCN)C(=O)N[C@@H](CC(N)=O)C(=O)NCCOCCOCC(=O)NCCOCCOCC(=O)N[C@@H](Cc1ccc(O)cc1)C(=O)NCC(=O)N[C@@H](Cc1c[nH]c2ccccc12)C(=O)N[C@@H](CC(C)C)C(=O)N[C@@H](CC(=O)O)C(=O)N[C@@H](Cc1ccccc1)C(N)=O` [Compound 81, [Lys16]Exendin-4(1-28)-Peg3-Peg3-[Leu4]Gastrin6] (H-HGEGTFTSDLSKQMEKEAVRLFIEWLKN[AEEA][AEEA]YGWLDF-NH2), the concentration for a half-maximal effect (EC50) in experiment [1] (Table 2) came to 0.032 nM; in experiment [2] (Table 2), 15 nM.

With `CC[C@H](C)[C@H](NC(=O)[C@H](Cc1ccccc1)NC(=O)[C@H](CC(C)C)NC(=O)[C@H](CCCNC(=N)N)NC(=O)[C@@H](NC(=O)[C@H](C)NC(=O)[C@H](CCC(=O)O)NC(=O)[C@H](CCC(=O)O)NC(=O)[C@H](CCC(=O)O)NC(=O)[C@H](CCSC)NC(=O)[C@H](Cc1ccc(O)cc1)NC(=O)[C@H](CCCCN)NC(=O)[C@H](CO)NC(=O)[C@H](CC(C)C)NC(=O)[C@H](CC(=O)O)NC(=O)[C@H](CO)NC(=O)[C@@H](NC(=O)[C@H](Cc1ccccc1)NC(=O)[C@@H](NC(=O)CNC(=O)[C@H](CCC(=O)O)NC(=O)CNC(=O)[C@@H](N)Cc1c[nH]cn1)[C@@H](C)O)[C@@H](C)O)C(C)C)C(=O)N[C@@H](CCC(=O)O)C(=O)N[C@@H](Cc1c[nH]c2ccccc12)C(=O)N[C@@H](CC(C)C)C(=O)N[C@@H](CCCCN)C(=O)N[C@@H](CC(N)=O)C(=O)NCCOCCOCC(=O)NCCOCCOCC(=O)N[C@@H](Cc1ccc(O)cc1)C(=O)NCC(=O)N[C@@H](Cc1c[nH]c2ccccc12)C(=O)N[C@@H](CC(C)C)C(=O)N[C@@H](CC(=O)O)C(=O)N[C@@H](Cc1ccccc1)C(N)=O` [Compound 65, [Tyr13]Exendin-4(1-28)-Peg3-Peg3-[Leu4]Gastrin6] (H-HGEGTFTSDLSKYMEEEAVRLFIEWLKN[AEEA][AEEA]YGWLDF-NH2), the 50% effective concentration (EC50) in experiment [1] (Table 2) was 0.046 nM; in experiment [2] (Table 2), 12 nM.

Turning to `CCCCCCCCCCCCCCCC(=O)N[C@@H](CCC(=O)NCCCC[C@H](NC(=O)CNC(=O)[C@H](CCCNC(=N)N)NC(=O)[C@@H](NC(=O)[C@H](CC(C)C)NC(=O)[C@H](Cc1c[nH]c2ccccc12)NC(=O)[C@H](C)NC(=O)[C@@H](NC(=O)[C@H](Cc1ccccc1)NC(=O)[C@H](CCC(=O)O)NC(=O)[C@H](CCCNC(=N)N)NC(=O)[C@H](C)NC(=O)[C@H](C)NC(=O)[C@H](CCC(N)=O)NC(=O)CNC(=O)[C@H](CCC(=O)O)NC(=O)[C@H](CC(C)C)NC(=O)[C@H](Cc1ccc(O)cc1)NC(=O)[C@H](CO)NC(=O)[C@H](CO)NC(=O)[C@@H](NC(=O)[C@H](CC(=O)O)NC(=O)[C@H](CO)NC(=O)[C@@H](NC(=O)[C@H](Cc1ccccc1)NC(=O)[C@@H](NC(=O)CNC(=O)[C@H](CCC(=O)O)NC(=O)CNC(=O)[C@@H](N)Cc1c[nH]cn1)[C@@H](C)O)[C@@H](C)O)C(C)C)[C@@H](C)CC)C(C)C)C(=O)NCC(=O)NCCOCCOCC(=O)NCCOCCOCC(=O)N[C@@H](Cc1ccc(O)cc1)C(=O)NCC(=O)N[C@@H](Cc1c[nH]c2ccccc12)C(=O)N[C@@H](CC(C)C)C(=O)N[C@@H](CC(=O)O)C(=O)N[C@@H](Cc1ccccc1)C(N)=O)C(=O)O` [Compound 110, [Arg26,34,Gly8,Lys(Hexadecanoyl-isoGlu)36]GLP-1(7-37)-Peg3-Peg3-[Leu4]Gastrin6] (H-HGEGTFTSDVSSYLEGQAAREFIAWLVRGK([γGlu-Palmitoyl])G[AEEA][AEEA]YGWLDF-NH2), the EC50 was 0.12 nM in experiment [1] (Table 3) and 29 nM in experiment [2] (Table 3).

On to `CC[C@H](C)[C@H](NC(=O)[C@H](Cc1ccccc1)NC(=O)[C@H](CC(C)C)NC(=O)[C@H](CCCNC(=N)N)NC(=O)[C@@H](NC(=O)[C@H](C)NC(=O)[C@H](CCC(=O)O)NC(=O)[C@H](CCC(=O)O)NC(=O)[C@H](CCC(=O)O)NC(=O)[C@H](CCSC)NC(=O)[C@H](CCC(N)=O)NC(=O)[C@H](CCCCN)NC(=O)[C@H](CO)NC(=O)[C@H](CC(C)C)NC(=O)[C@H](CC(=O)O)NC(=O)[C@H](CO)NC(=O)[C@@H](NC(=O)[C@H](Cc1ccccc1)NC(=O)[C@@H](NC(=O)CNC(=O)[C@H](CCC(=O)O)NC(=O)CNC(=O)[C@@H](N)Cc1c[nH]cn1)[C@@H](C)O)[C@@H](C)O)C(C)C)C(=O)N[C@@H](CCC(=O)O)C(=O)N[C@@H](Cc1ccccc1)C(=O)N[C@@H](CC(C)C)C(=O)N[C@@H](CCCCN)C(=O)N[C@@H](CC(N)=O)C(=O)NCCOCCOCC(=O)NCCOCCOCC(=O)N[C@@H](Cc1ccc(O)cc1)C(=O)NCC(=O)N[C@@H](Cc1c[nH]c2ccccc12)C(=O)N[C@@H](CC(C)C)C(=O)N[C@@H](CC(=O)O)C(=O)N[C@@H](Cc1ccccc1)C(N)=O` [Compound 63, [Phe25]Exendin-4(1-28)-Peg3-Peg3-[Leu4]Gastrin6], for which the EC50 in experiment [1] (Table 2) amounted to 0.041 nM; in experiment [2] (Table 2), 8.5 nM.

On to `CC[C@H](C)[C@H](NC(=O)[C@H](Cc1ccccc1)NC(=O)[C@H](CC(C)C)NC(=O)[C@H](CCCNC(=N)N)NC(=O)[C@@H](NC(=O)[C@H](C)NC(=O)[C@H](CCC(=O)O)NC(=O)[C@H](CCC(=O)O)NC(=O)[C@H](CCC(=O)O)NC(=O)[C@H](CC(C)C)NC(=O)[C@H](Cc1ccc(O)cc1)NC(=O)[C@H](CCCCN)NC(=O)[C@H](CO)NC(=O)[C@H](CC(C)C)NC(=O)[C@H](CCC(=O)O)NC(=O)[C@H](CO)NC(=O)[C@@H](NC(=O)[C@H](Cc1ccccc1)NC(=O)[C@@H](NC(=O)CNC(=O)[C@H](CCC(=O)O)NC(=O)CNC(=O)[C@@H](N)Cc1c[nH]cn1)[C@@H](C)O)[C@@H](C)O)C(C)C)C(=O)N[C@@H](CCC(=O)O)C(=O)N[C@@H](Cc1ccccc1)C(=O)N[C@@H](CC(C)C)C(=O)N[C@@H](CCCCN)C(=O)N[C@@H](CCCN)C(=O)NCCOCCOCC(=O)N[C@@H](Cc1c[nH]c2ccccc12)C(=O)N[C@@H](CC(C)C)C(=O)N[C@@H](CC(=O)O)C(=O)N[C@@H](Cc1ccccc1)C(N)=O` [Compound 98, [Glu9,Leu14,Phe25,Tyr13]Exendin-4(1-27)-Orn-Peg3-[Leu2]Gastrin4] (H-HGEGTFTSELSKYLEEEAVRLFIEFLK[Orn][AEEA]WLDF-NH2), for which the half-maximal effective concentration (EC50) worked out at 0.046 nM in experiment [1] (Table 2) and 10 nM in experiment [2] (Table 2).
